Assay results reported in patent US11208412B2 (DAEGU-GYEONGBUK MEDICAL INNOVATION FOUNDATION, priority 2017, dated 2021).

Molecular target: T1, recombinant LRRK2 kinase (Homo sapiens, UniProt Q5S007)
T1 construct: purchased Signal Chem, Richmond, BC, Canada
Test: LRRK2 kinase inhibition (Kinase-Glo luminescence)
Assay type: biochemical
Conditions: IC50 grade; 25 μmol/L ATP, LRRKtide, 30° C. 2 hours; read-out: Enzyme activity LRRK2
Experimental: Upon completion of the reaction, an equal amount of Kinase-Glo (Promega, Madison, Wis.) solution was added thereto, followed by reaction for 40 minutes. A detection solution was added thereto, followed by further reaction at room temperature for 30 minutes. Then, IC50 of kinase was calculated by measuring the amount of luciferase using a microplate ELISA reader (Bio-Tek).

T1 sequence (Q5S007 whole entry): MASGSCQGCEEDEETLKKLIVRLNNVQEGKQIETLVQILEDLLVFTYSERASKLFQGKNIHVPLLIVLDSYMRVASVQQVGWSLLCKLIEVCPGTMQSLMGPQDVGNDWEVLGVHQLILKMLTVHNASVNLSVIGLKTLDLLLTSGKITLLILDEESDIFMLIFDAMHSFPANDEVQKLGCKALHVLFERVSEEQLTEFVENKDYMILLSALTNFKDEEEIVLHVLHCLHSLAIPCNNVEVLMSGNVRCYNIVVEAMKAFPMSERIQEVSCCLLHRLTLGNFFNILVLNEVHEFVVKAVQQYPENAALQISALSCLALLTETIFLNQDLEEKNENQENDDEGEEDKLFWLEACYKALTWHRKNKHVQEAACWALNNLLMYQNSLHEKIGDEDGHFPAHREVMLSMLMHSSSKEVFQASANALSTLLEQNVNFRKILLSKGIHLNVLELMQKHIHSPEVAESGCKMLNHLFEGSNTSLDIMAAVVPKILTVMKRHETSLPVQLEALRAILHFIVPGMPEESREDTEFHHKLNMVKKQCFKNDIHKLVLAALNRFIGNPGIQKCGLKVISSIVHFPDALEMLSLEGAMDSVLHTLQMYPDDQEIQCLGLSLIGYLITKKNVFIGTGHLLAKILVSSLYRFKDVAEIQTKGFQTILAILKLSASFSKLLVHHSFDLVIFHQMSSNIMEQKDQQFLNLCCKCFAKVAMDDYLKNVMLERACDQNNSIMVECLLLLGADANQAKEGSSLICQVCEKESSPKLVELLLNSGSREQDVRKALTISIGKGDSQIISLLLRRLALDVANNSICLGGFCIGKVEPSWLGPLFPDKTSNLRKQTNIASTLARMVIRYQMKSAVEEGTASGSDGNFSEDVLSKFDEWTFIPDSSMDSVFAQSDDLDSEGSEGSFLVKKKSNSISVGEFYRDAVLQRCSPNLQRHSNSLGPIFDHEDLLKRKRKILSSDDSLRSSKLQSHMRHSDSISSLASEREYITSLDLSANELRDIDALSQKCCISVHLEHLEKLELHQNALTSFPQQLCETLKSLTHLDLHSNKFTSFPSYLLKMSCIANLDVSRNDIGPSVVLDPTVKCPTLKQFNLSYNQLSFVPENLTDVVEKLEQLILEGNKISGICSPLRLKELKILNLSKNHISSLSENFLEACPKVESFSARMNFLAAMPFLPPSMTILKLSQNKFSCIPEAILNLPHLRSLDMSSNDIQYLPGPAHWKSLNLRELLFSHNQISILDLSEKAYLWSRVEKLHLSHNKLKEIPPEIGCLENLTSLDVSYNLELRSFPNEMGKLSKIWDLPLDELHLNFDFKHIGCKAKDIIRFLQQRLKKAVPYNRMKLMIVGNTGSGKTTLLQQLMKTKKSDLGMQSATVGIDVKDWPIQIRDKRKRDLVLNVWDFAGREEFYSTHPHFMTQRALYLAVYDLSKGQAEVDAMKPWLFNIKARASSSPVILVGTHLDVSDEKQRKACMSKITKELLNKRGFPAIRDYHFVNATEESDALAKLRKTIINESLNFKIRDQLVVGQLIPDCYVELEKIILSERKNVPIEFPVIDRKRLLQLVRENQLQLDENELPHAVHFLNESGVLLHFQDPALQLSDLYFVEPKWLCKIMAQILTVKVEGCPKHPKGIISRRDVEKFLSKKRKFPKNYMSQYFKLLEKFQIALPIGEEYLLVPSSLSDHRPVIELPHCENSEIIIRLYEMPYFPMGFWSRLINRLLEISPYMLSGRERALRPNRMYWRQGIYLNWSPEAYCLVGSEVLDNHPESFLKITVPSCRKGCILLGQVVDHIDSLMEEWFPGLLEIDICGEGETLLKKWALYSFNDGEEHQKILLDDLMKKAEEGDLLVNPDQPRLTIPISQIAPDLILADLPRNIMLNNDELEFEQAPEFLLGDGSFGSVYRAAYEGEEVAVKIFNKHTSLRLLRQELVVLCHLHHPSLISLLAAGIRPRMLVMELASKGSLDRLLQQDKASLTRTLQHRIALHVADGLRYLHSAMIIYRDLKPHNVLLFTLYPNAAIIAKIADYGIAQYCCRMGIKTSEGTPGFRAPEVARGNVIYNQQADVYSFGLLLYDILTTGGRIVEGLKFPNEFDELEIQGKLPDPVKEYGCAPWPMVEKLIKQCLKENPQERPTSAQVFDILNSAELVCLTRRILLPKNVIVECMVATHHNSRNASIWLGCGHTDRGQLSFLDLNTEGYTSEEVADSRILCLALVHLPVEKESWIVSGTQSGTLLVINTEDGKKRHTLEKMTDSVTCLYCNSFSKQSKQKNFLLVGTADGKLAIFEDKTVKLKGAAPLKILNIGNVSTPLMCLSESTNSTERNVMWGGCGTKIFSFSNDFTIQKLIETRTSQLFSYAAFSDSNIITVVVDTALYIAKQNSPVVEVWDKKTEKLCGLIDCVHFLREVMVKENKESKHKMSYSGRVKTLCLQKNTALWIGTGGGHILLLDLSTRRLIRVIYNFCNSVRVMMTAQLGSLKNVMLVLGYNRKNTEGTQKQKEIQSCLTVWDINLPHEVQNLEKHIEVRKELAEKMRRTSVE

SMILES | IC50 [nM]
CNc1nc(Nc2cnn(CCOC)c2Cl)nc2[nH]cc(C#N)c12 [Example 59, 2-((5-chloro-1-(2-methoxyethyl)-1H-pyrazole-4-yl)amino)-4-(methylamino)-7H-pyrrolo[2,3-d]pyrimidine-5-carbonitrile] | < 10
CNc1nc(Nc2cn(C)nc2C)nc2[nH]cc(C#N)c12 [Example 28, 6-((1,3-dimethyl-1H-pyrazole-4-yl)amino)-4-(methylamino)-1H-pyrrolo[2,3-b]pyrimidine-3-carbonitrile] | 10 to 100
CCNc1nc(Nc2ccc(C(=O)N3CCC(F)(F)CC3)cc2OC)nc2[nH]cc(C#N)c12 [Example 27, 2-((4-(4,4-difluoropiperidine-1-carbonyl)-2-methoxyphenyl)amino)-4-(ethylamino)-7H-pyrrolo[2,3-d]pyrimidine-5-carbonitrile] | < 10
COc1cc(C(=O)N2CCOCC2)ccc1Nc1nc(OC2CCOCC2)c2c(C#N)c[nH]c2n1 [Example 84, 2-((2-methoxy-4-(morpholine-4-carbonyl)phenyl)amino)-4-((tetrahydro-2H-pyran-4-yl)oxy)-7H-pyrrolo[2,3-d]pyrimidine-5-carbonitrile] | < 10
COc1cc(C(=O)NC2CCN(C(C)C)CC2)c(F)cc1Nc1nc(NC2(C)CC2)c2c(C#N)c[nH]c2n1 [Example 82, 4-((5-cyano-4-((1-methylcyclopropyl)amino)-7H-pyrrolo[2,3-d]pyrimidine-2-yl)amino)-2-fluoro-N-(1-isopropylpiperidine-4-yl)-5-methoxybenzamide] | 10 to 100
COc1cc(C(=O)N2CCC(N3CCOCC3)CC2)ccc1Nc1nc(OC2CCOCC2)c2c(C#N)c[nH]c2n1 [Example 85] | < 10
CCNc1nc(Nc2c(C)nn(C(C)(C)C#N)c2C)nc2[nH]cc(C#N)c12 [Example 78, 2-((1-(2-cyanopropane-2-yl)-3,5-dimethyl-1H-pyrazole-4-yl)amino)-4-(ethylamino)-7H-pyrrolo[2,3-d]pyrimidine-5-carbonitrile] | > 100
CCNc1nc(Nc2cc(F)c(C(=O)NC3CCN(C(C)C)CC3)cc2OC)nc2[nH]cc(C#N)c12 [Example 68, 4-((5-cyano-4-(ethylamino)-7H-pyrrolo[2,3-d]pyrimidine-2-yl)amino)-2-fluoro-N-(1-isopropylpiperidine-4-yl)-5-methoxybenzamide] | < 10
COc1cc(C(=O)N2CCO[C@@H](C)C2)ccc1Nc1nc(NC2(C)CC2)c2c(C#N)c[nH]c2n1 [Example 43, (S)-2-((2-methoxy-4-(2-methylmorpholine-4-carbonyl)phenyl)amino)-4-((1-methylcyclopropyl)amino)-7H-pyrrolo[2,3-d]pyrimidine-5-carbonitrile] | < 10
CCNc1nc(Nc2ccc(C(=O)N3CCOC(C)C3)cc2OC)nc2[nH]cc(C(F)(F)F)c12 (stereo in doubt) [Example 111, (S)-(4-((4-(ethylamino)-5-(trifluoromethyl)-7H-pyrrolo[2,3-d]pyrimidine-2-yl)amino)-3-methoxyphenyl)(2-methylmorpholino)methanone] | 10 to 100
CNc1nc(Nc2ccc(C(=O)N3CCN(C)C[C@H]3C)cc2OC)nc2[nH]cc(C#N)c12 [Example 75, (R)-2-((4-(2,4-dimethylpiperazine-1-carbonyl)-2-methoxyphenyl)amino)-4-(methylamino)-7H-pyrrolo[2,3-d]pyrimidine-5-carbonitrile] | < 10
CCNc1nc(Nc2cc3c(cc2OC)C(=O)N(C)C3)nc2[nH]cc(C#N)c12 [Example 130, 4-(ethylamino)-2-((6-methoxy-2-methyl-1-oxoisoindol-5-yl)amino)-7H-pyrrolo[2,3-d]pyrimidine-5-carbonitrile] | < 10
COc1cc(C(=O)N2CCOCC2)ccc1Nc1nc(O[C@H]2CCOC2)c2c(C#N)c[nH]c2n1 [Example 88, (S)-2-((2-methoxy-4-(morpholine-4-carbonyl)phenyl)amino)-4-((tetrahydrofuran-3-yl)oxy)-7H-pyrrolo[2,3-d]pyrimidine-5-carbonitrile] | < 10
